Four compounds from ChEMBL document CHEMBL5579823, “Discovery of 7-alkoxybenzofurans as PDE4 inhibitors with hepatoprotective activity in D-GalN/LPS-induced hepatic sepsis” (Eur J Med Chem, 2024) can be followed below.

The bioavailability is the share of a dose that reaches the circulation, judged against a reference dose that is usually intravenous. Read a high bioavailability as good availability. One may read the MRT last as the average time that molecules of a dose stay in the body. As usually defined, the Cmax is the peak of the concentration-time curve. As a reminder, the inhibition is the relative decrease from the control value, in per cent. For orientation: AUC(0-t) means the area under the concentration-time curve up to a stated or last time point. Lower therefore signals low exposure. As usually defined, the IC50 is the point on the concentration scale where inhibition reaches its midpoint. In general, Tmax refers to the time from dosing to the highest level. What is called clearance is a measure of how efficiently the substance is removed, as volume per time. Higher therefore signals a high capacity for elimination. The term AUC denotes the area under the concentration-time curve, a measure of exposure. Lower therefore signals low exposure. As a reminder, the CL/F is the apparent clearance, not corrected for the fraction that reaches the circulation.

Active and inactive are the calls of the source. No cut-off for these calls is given here.

For data set [1], the system named is Mus musculus. Briefly: Hepatoprotective activity in GalN/LPS-induced C57BL/6J mouse hepatic sepsis model at 3 mg/kg, IG administered once daily for 3 days followed by GalN/LPS addition 1 hr post-last dose measured after 4 hrs by hematoxylin and eosin staining based light microscopy. The following applies: time 3.0 day. Type of data set: functional, organism-based.

Data set [2] can be described thus: Oral bioavailability in Sprague-Dawley rat at 5 mg/kg by LC-MS/MS analysis. The following applies: in vivo. It is filed as ADME, organism-based.
Data set [3] relates to Mus musculus. The data set is described as follows: Hepatoprotective activity in GalN/LPS-induced C57BL/6J mouse hepatic sepsis model assessed as reduction in ALT level at 1 to 3 mg/kg, IG administered once daily for 3 days followed by GalN/LPS addition 1 hr post-last dose measured after 4 hrs. Type of data set: functional, organism-based. The following applies: dose 1-3 mg/kg, time 3.0 day.

Data set [4] in a line: MRT(0 to t) in Sprague-Dawley rat at 5 mg/kg, po by LC-MS/MS analysis. Type of data set: ADME, organism-based. The settings on record: in vivo.
Data set [5] can be described thus: Cmax in Sprague-Dawley rat at 5 mg/kg, po by LC-MS/MS analysis. The settings on record: in vivo. It is filed as ADME, organism-based.
Data set [6] deals with High affinity 3',5'-cyclic-AMP phosphodiesterase 7A (Homo sapiens) (UniProt Q13946). The data set is described as follows: Inhibition of PDE7A (unknown origin) at 10 uM using FAM-cyclic-3',5'-AMP as substrate measured after 1 hr by fluorescence polarization assay relative to control. A general note: In fluorescence polarisation assays a small probe gives low polarisation when free and higher when bound to something large.

Data set [7] concerns Mus musculus. The data set is described as follows: Hepatoprotective activity in GalN/LPS-induced C57BL/6J mouse hepatic sepsis model assessed as reduction in necrotic morphology at 1 to 3 mg/kg, IG administered once daily for 3 days followed by GalN/LPS addition 1 hr post-last dose measured after 4 hrs by hematoxylin and eosin staining based light microscopy. Type of data set: functional, organism-based. The settings on record: dose 1-3 mg/kg, time 3.0 day.

Data set [8] is described as follows: AUC(0 to t) in Sprague-Dawley rat at 5 mg/kg, po by LC-MS/MS analysis. Type of data set: ADME, organism-based. The following applies: in vivo.
The nature of data set [9]: MRT(0 to t) in Sprague-Dawley rat at 5 mg/kg, iv by LC-MS/MS analysis. It is filed as ADME, organism-based. The settings on record: in vivo.
Data set [10] addresses High affinity cGMP-specific 3',5'-cyclic phosphodiesterase 9A (Homo sapiens) (UniProt O76083). Briefly: Inhibition of human N-terminal GST-tagged full-length PDE9A2 expressed in baculovirus infected Sf9 insect cells at 20 uM using FAM-cyclic-3',5'-AMP as substrate measured after 1 hr by fluorescence polarization assay relative to control.
The target of data set [11] is T1, 3',5'-cyclic-AMP phosphodiesterase 4B (Homo sapiens, UniProt Q07343). The data set is described as follows: Inhibition of recombinant human N-terminal GST-tagged PDE4B1 (1 to 736 residues) expressed in Sf9 insect cells using FAM-cyclic-3',5'-AMP as substrate measured after 1 hr by fluorescence polarization assay.
The nature of data set [12]: Tmax in Sprague-Dawley rat at 5 mg/kg, po by LC-MS/MS analysis. It is filed as ADME, organism-based. The settings on record: in vivo.
The test system of data set [13] is Mus musculus. Briefly: Hepatoprotective activity in GalN/LPS-induced C57BL/6J mouse hepatic sepsis model assessed as reduction in hepatomegaly at 1 to 3 mg/kg, IG administered once daily for 3 days followed by GalN/LPS addition 1 hr post-last dose measured after 4 hrs by hematoxylin and eosin staining based light microscopy. Type of data set: functional, organism-based. The following applies: dose 1-3 mg/kg, time 3.0 day.

The nature of data set [14]: Clearance in Sprague-Dawley rat at 5 mg/kg, iv by LC-MS/MS analysis. Type of data set: ADME, organism-based. The following applies: in vivo.
A short description of data set [15]: AUC (0 to infinity) in Sprague-Dawley rat at 5 mg/kg, iv by LC-MS/MS analysis. Type of data set: ADME, organism-based. The settings on record: in vivo.
The target of data set [16] is cGMP-specific 3',5'-cyclic phosphodiesterase (Homo sapiens) (UniProt O76074). The data set is described as follows: Inhibition of PDE5A (unknown origin) at 10 uM using FAM-cyclic-3',5'-AMP as substrate measured after 1 hr by fluorescence polarization assay relative to control.
Data set [17] in a line: Half-life in Sprague-Dawley rat at 5 mg/kg, po by LC-MS/MS analysis. It is filed as ADME, organism-based. The following applies: in vivo.
Data set [18] can be described thus: Cmax in Sprague-Dawley rat at 5 mg/kg, iv by LC-MS/MS analysis. The settings on record: in vivo. Type of data set: ADME, organism-based.
Data set [19] can be described thus: Half-life in Sprague-Dawley rat at 5 mg/kg, iv by LC-MS/MS analysis. Type of data set: ADME, organism-based. The settings on record: in vivo.
For data set [20], the target named is High affinity 3',5'-cyclic-AMP phosphodiesterase 7A (Homo sapiens) (UniProt Q13946). The data set is described as follows: Inhibition of PDE7A (unknown origin) at 20 uM using FAM-cyclic-3',5'-AMP as substrate measured after 1 hr by fluorescence polarization assay relative to control.
The nature of data set [21]: Volume of distribution in Sprague-Dawley rat at 5 mg/kg, iv by LC-MS/MS analysis. Type of data set: ADME, organism-based. The following applies: in vivo.
The target in data set [22] is cGMP-specific 3',5'-cyclic phosphodiesterase (Homo sapiens) (UniProt O76074). Briefly: Inhibition of PDE5A (unknown origin) at 20 uM using FAM-cyclic-3',5'-AMP as substrate measured after 1 hr by fluorescence polarization assay relative to control.
A short description of data set [23]: AUC (0 to t) in Sprague-Dawley rat at 5 mg/kg, iv by LC-MS/MS analysis. Type of data set: ADME, organism-based. The following applies: in vivo.
The target in data set [24] is cGMP-inhibited 3',5'-cyclic phosphodiesterase 3B (Homo sapiens) (UniProt Q13370). Briefly: Inhibition of recombinant human N-terminal GST-tagged PDE3B (592 to 1112 residues) expressed in Sf9 insect cells at 10 uM using FAM-cyclic-3',5'-AMP as substrate measured after 1 hr by fluorescence polarization assay relative to control.
Data set [25] has the same target. Briefly: Inhibition of recombinant human N-terminal GST-tagged PDE3B (592 to 1112 residues) expressed in Sf9 insect cells at 20 uM using FAM-cyclic-3',5'-AMP as substrate measured after 1 hr by fluorescence polarization assay relative to control.
The target in data set [26] is High affinity cAMP-specific 3',5'-cyclic phosphodiesterase 8A (Homo sapiens) (UniProt O60658). Briefly: Inhibition of human N-terminal GST-tagged full-length PDE8A1 expressed in baculovirus infected Sf9 insect cells at 10 uM using FAM-cyclic-3',5'-AMP as substrate measured after 1 hr by fluorescence polarization assay relative to control.
A short description of data set [27]: Clearance in Sprague-Dawley rat at 5 mg/kg, po by LC-MS/MS analysis. Type of data set: ADME, organism-based. The settings on record: in vivo.
Data set [28] can be described thus: AUC(0 to infinity) in Sprague-Dawley rat at 5 mg/kg, po by LC-MS/MS analysis. It is filed as ADME, organism-based. The following applies: in vivo.
Data set [29] has as its target High affinity cAMP-specific 3',5'-cyclic phosphodiesterase 8A (Homo sapiens) (UniProt O60658). Briefly: Inhibition of human N-terminal GST-tagged full-length PDE8A1 expressed in baculovirus infected Sf9 insect cells at 20 uM using FAM-cyclic-3',5'-AMP as substrate measured after 1 hr by fluorescence polarization assay relative to control.
Data set [30] concerns the target High affinity cGMP-specific 3',5'-cyclic phosphodiesterase 9A (Homo sapiens) (UniProt O76083). The data set is described as follows: Inhibition of human N-terminal GST-tagged full-length PDE9A2 expressed in baculovirus infected Sf9 insect cells at 10 uM using FAM-cyclic-3',5'-AMP as substrate measured after 1 hr by fluorescence polarization assay relative to control.

The test system of data set [31] is Mus musculus. The data set is described as follows: Hepatoprotective activity in GalN/LPS-induced C57BL/6J mouse hepatic sepsis model assessed as reduction in aggregation of inflammatory cells at 1 to 3 mg/kg, IG administered once daily for 3 days followed by GalN/LPS addition 1 hr post-last dose measured after 4 hrs by hematoxylin and eosin staining based light microscopy. It is filed as functional, organism-based. The following applies: dose 1-3 mg/kg, time 3.0 day.

The subject of data set [32] is Mus musculus. Briefly: Hepatoprotective activity in GalN/LPS-induced C57BL/6J mouse hepatic sepsis model assessed as reduction in AST level at 1 to 3 mg/kg, IG administered once daily for 3 days followed by GalN/LPS addition 1 hr post-last dose measured after 4 hrs. Type of data set: functional, organism-based. The settings on record: dose 1-3 mg/kg, time 3.0 day.

A short description of data set [33]: Volume of distribution in Sprague-Dawley rat at 5 mg/kg, po by LC-MS/MS analysis. Type of data set: ADME, organism-based. The following applies: in vivo.
Data set [34] in a line: Oral bioavailability in mouse at 5 mg/kg by LC-MS/MS analysis. The following applies: in vivo. It is filed as ADME, organism-based.
For data set [35], the target named is T2, 3',5'-cyclic-AMP phosphodiesterase 4D (Homo sapiens, UniProt Q08499). The data set is described as follows: Inhibition of human N-terminal GST-tagged PDE4D7 (2 to 748 residues) expressed in baculovirus infected Sf9 insect cells using FAM-cyclic-3',5'-AMP as substrate measured after 1 hr by fluorescence polarization assay.
The target of data set [36] is T1, 3',5'-cyclic-AMP phosphodiesterase 4B. Briefly: Inhibition of PDE4B1 (unknown origin).
In data set [37] the target is T2, 3',5'-cyclic-AMP phosphodiesterase 4D. The data set is described as follows: Inhibition of PDE4D7 (unknown origin).

T1 sequence (Q07343 whole entry, the tested form may be a part): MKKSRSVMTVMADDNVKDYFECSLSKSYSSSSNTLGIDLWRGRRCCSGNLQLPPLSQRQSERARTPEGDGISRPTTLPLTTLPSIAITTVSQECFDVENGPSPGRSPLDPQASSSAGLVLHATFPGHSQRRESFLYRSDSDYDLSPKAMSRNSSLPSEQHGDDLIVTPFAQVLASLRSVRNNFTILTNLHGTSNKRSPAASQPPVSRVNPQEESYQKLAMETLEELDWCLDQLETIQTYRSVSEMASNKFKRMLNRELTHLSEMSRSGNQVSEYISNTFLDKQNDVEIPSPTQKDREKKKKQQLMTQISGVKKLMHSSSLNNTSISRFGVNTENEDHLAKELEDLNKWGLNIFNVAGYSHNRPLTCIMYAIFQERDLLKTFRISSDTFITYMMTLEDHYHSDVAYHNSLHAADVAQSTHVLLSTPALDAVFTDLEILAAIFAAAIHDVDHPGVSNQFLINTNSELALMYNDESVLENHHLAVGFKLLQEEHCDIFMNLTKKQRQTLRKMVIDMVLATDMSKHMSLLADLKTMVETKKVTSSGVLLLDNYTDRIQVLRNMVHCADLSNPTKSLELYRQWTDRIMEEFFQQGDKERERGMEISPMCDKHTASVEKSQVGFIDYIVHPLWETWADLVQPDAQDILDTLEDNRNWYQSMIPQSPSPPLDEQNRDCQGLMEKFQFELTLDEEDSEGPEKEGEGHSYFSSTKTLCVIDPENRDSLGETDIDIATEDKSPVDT
T2 sequence (Q08499 whole entry, the tested form may be a part): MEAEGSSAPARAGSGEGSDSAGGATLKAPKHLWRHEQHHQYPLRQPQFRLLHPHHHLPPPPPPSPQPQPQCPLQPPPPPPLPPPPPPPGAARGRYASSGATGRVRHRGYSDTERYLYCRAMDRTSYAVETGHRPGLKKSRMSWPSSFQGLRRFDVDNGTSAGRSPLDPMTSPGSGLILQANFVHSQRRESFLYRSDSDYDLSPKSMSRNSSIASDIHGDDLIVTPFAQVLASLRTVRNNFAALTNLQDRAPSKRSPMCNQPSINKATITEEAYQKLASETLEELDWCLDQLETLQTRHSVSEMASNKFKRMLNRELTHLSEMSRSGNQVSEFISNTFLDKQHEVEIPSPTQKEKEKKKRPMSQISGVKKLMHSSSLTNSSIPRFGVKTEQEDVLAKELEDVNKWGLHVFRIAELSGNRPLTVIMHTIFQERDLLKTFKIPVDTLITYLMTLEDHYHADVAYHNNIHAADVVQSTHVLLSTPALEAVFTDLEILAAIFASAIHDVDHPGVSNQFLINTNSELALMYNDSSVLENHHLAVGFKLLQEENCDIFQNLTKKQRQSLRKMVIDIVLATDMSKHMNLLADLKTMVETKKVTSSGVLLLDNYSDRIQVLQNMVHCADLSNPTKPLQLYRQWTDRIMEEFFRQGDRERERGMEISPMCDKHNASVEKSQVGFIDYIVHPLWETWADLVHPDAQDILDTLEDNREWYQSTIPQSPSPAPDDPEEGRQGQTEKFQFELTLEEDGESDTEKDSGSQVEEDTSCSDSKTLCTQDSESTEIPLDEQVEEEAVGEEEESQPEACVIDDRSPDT
High affinity cAMP-specific 3',5'-cyclic phosphodiesterase 8A (Homo sapiens), sequence (O60658 whole entry, looked up): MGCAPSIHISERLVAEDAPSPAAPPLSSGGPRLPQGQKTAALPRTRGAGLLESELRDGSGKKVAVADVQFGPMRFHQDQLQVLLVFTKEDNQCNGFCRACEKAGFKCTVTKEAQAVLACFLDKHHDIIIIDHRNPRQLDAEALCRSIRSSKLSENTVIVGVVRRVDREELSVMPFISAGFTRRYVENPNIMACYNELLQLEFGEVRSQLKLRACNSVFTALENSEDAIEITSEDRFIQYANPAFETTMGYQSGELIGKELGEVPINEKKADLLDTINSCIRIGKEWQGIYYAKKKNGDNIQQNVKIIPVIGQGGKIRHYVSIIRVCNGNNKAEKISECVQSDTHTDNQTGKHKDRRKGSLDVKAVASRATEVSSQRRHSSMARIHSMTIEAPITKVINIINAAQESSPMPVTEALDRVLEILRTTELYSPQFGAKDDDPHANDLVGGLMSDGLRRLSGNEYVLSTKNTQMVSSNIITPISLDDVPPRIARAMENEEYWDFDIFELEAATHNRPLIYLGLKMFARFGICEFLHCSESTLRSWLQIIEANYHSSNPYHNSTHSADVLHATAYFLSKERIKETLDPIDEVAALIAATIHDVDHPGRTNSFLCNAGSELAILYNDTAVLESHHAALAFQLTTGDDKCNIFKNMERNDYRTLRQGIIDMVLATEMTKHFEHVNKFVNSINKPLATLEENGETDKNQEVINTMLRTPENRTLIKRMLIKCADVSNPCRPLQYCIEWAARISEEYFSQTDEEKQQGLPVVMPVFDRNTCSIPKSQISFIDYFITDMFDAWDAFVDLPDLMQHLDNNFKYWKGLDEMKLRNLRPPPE
cGMP-inhibited 3',5'-cyclic phosphodiesterase 3B (Homo sapiens), sequence (Q13370 whole entry, looked up, the tested form may be a part): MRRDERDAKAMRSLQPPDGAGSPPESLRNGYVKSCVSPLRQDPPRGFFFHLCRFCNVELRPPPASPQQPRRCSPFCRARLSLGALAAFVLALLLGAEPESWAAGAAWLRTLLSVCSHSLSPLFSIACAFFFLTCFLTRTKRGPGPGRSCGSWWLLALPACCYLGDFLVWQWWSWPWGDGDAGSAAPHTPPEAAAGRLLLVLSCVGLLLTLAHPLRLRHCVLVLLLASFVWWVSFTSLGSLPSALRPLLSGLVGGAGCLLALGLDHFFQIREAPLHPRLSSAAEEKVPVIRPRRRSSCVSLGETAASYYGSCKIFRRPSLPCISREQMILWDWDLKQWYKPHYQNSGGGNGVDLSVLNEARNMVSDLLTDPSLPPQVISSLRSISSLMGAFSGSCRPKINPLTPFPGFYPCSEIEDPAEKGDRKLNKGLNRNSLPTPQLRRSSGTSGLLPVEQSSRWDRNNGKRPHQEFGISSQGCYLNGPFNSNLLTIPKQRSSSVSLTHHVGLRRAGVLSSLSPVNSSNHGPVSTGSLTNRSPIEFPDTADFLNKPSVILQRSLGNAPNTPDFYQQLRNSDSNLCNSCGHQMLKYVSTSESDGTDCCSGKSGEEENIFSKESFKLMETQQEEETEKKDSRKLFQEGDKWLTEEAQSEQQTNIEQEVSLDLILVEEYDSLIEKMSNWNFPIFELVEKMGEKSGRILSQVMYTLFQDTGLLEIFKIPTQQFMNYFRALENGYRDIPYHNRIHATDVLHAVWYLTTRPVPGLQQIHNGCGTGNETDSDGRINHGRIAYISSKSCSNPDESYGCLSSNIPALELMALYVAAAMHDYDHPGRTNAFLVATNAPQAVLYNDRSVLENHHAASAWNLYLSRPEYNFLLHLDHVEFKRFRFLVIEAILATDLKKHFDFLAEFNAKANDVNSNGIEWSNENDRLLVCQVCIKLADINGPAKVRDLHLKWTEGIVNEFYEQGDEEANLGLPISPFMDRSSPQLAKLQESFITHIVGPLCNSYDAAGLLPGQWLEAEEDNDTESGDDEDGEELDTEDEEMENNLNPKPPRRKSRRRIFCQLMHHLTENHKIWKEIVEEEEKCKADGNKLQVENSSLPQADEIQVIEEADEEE
High affinity cGMP-specific 3',5'-cyclic phosphodiesterase 9A (Homo sapiens), sequence (O76083 whole entry, the tested form may be a part): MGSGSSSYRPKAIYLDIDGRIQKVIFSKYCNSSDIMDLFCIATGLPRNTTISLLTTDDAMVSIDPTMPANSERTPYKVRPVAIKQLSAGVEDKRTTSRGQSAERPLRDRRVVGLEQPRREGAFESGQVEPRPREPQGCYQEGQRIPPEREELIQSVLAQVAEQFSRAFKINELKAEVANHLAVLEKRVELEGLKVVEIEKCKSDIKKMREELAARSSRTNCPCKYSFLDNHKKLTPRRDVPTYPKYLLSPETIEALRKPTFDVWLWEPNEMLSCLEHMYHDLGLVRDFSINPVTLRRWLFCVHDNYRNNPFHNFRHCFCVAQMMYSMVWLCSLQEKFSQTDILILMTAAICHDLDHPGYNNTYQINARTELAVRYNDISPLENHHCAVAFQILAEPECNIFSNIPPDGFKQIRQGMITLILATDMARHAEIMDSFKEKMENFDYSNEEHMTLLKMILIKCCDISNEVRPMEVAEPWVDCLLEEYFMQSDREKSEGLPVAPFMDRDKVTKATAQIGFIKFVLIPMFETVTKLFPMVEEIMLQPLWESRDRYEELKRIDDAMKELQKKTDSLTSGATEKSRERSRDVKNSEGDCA
High affinity 3',5'-cyclic-AMP phosphodiesterase 7A (Homo sapiens), sequence (Q13946 whole entry): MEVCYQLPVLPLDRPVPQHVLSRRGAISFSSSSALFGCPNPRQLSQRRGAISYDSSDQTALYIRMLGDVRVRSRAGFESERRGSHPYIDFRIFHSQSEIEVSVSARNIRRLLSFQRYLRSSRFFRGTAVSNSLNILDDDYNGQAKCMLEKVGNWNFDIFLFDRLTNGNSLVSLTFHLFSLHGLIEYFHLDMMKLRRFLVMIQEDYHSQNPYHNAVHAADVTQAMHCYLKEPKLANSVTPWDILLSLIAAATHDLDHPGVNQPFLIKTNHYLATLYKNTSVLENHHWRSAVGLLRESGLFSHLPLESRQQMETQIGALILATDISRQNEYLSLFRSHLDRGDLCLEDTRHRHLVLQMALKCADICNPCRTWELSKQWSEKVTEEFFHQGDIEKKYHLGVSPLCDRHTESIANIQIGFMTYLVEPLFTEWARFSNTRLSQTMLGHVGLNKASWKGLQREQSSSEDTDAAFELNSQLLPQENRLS

With `COc1ccc(C2CNC(=O)C2)cc1OC1CCCC1` (stereo not drawn), in the data set with Mus musculus [1], the outcome was Active.
As for `COc1ccc(C(=O)Cn2ccnc2)c2cc(C3CC3)oc12`, in data set [2], the bioavailability was 66%. Moreover, the result in the data set with Mus musculus [3], in the data set on Mus musculus [7], in the data set with Mus musculus [13], in the data set on Mus musculus [31] and in the data set on Mus musculus [32] was Active. Further, the MRT last was determined as 2.74 h in [4] and 2.31 h in data set [9]. In addition, the Cmax amounted to 957 ng/mL in [5] and 1740 ng/mL in data set [18]. For the same compound, the inhibition worked out at 8% in data set [6]; 12% in data set [10]; 9% in data set [16]; 15% in [20]; 17% in [22]; 11% in data set [24]. The inhibition in data set [25] is 23%; in [26], 6%; in [29], 14%; in [30], 5%. For the same compound, the AUC(0-t) is 3440 ng·h/mL in data set [8] and 5170 ng·h/mL in [23]. In addition, the IC50 in data set [11] was 10 nM. In data set [12], the Tmax was determined as 0.88 h. This compound also gave a clearance in [14] of 15.8 mL/min/kg. Moreover, the AUC in data set [15] was determined as 5299.87 ng·h/mL; in [28] it was 3669.79 ng·h/mL. Moreover, the t1/2 in [17] is 2 h; in [19] it was 1.29 h. For the same compound, the Vd was 1.76 L/kg in data set [21] and 3.91 L/kg in data set [33]. This compound also had a CL/F in [27] of 22.8 mL/min/kg.
In data set [34], `CC(C)NC(=O)c1ccc(OC(F)F)c(OCC2CC2)c1` had a bioavailability of less than 5%. The results for the IC50 in data set [11] and in data set [35] were 31 nM and 47 nM, respectively.
As for `CCNc1cc(C(=O)C2CCCC2)ccc1OC`, the half-maximal inhibitory concentration (IC50) in data set [36] was determined as 110 nM; in [37], 1610 nM.
